Measured values published in patent US8273398B2, “Geranylamine derivates of oxalic acid” (Symrise AG, priority 2008, dated 2012).

Experiments:
panel of trained testers = assay: Taste profile of the pure substance in saline or sugar solution, tasting by a panel of trained testers; format: in vivo, human; conditions: for Taste profile: pure substance in saline or sugar solution; for Umami character: own tests, tasting
From the text: The ethyl ester (3) of a partially hydrogenated geranyl derivate has already been described in the literature (Maslozhirovaya Promyshlennost 1983, 4, 26-27). In the context of our own tests the corresponding methyl ester (4) during tasting by a panel of trained testers was described as very neutral; the corresponding methyl amine (5) was assigned fruity notes (see Table 2 contained within the examples of the present text). In the following, selected substances manufactured according to the general instructions described above are presented. In each case the taste profiles have been determined by determining the taste impression of the respective substance as a pure substance in saline or sugar solution and therefore deviate from the taste impressions (in beef extracts) shown in Table 1 and FIG. 1. The following structures are further examples from this substance class, prepared and tasted according to AAV 1 and AAV 2—on the basis of various alcohols and amines.

[1] = Sensory profile in American beef extract base (Table 1, FIG. 1); format: in vivo; design: scale not given here
From the text: This is also shown in Table 1 and the spider diagram in FIG. 1, in which an American beef extract as a base is compared with such a base plus the addition of 10 ppm of a compound (I) according to the invention and/or 10 ppm of a compound of formula (II) according to the invention and with such a base plus the addition of 0.05 weight % of MSG (monosodium glutamate).

[2] = test system: panel of trained test persons; assay: Application in green tea drink, tasting panel; format: in vivo, human; conditions: green tea drink with 0.008 weight % of a 1% solution in propylene glycol
Procedure: The green tea concentrate is mixed with a 1% solution of N-((E)-3,7-dimethyl-octa-2,6-dienyl)-oxalamide methyl ester (I) in propylene glycol. Then it is topped up with demineralized water and thoroughly mixed again. The product is then filtered, packaged ready for consumption and sterilized at 118° C.

[3] = beef extract + 0.05 weight % MSG

SMILES: CNC(=O)C(=O)NCC=C(C)C
- Taste profile (panel of trained testers): neutral

SMILES: CCNC(=O)C(=O)NC/C=C(\C)CCC=C(C)C [formula (7)]
- Taste profile (panel of trained testers; listed as (7)): very neutral
- Taste profile (panel of trained testers; listed as drawing 19): neutral

SMILES: CNC(=O)C(=O)NC/C=C(\C)CCC=C(C)C [formula (II), N-((E)-3,7-dimethyl-octa-2,6-dienyl)-N′-methyl-oxalamide]
- Umami character (panel of trained testers): clear umami taste
- Taste profile (panel of trained testers): meaty, full, metallic, umami
- Baked, roasted ([1]; beef extract + 10 ppm compound): 4.27
- Bitter ([1]; beef extract + 10 ppm compound): 1.00
- Meaty ([1]; beef extract + 10 ppm compound): 5.09
- Metallic ([1]; beef extract + 10 ppm compound): 3.55
- Mouth-watering ([1]; beef extract + 10 ppm compound): 4.14
- Mouthfeel ([1]; beef extract + 10 ppm compound): 4.73
- Salty ([1]; beef extract + 10 ppm compound): 2.82
- Sour ([1]; beef extract + 10 ppm compound): 2.45
- Sweet ([1]; beef extract + 10 ppm compound): 2.27
- Tenacity, long-lasting ([1]; beef extract + 10 ppm compound): 4.64

SMILES: CNC(=O)C(=O)NCCC(C)CCCC(C)C (stereo not shown)
- Taste profile (panel of trained testers): neutral

SMILES: N[C@@H](CCC(=O)O)C(=O)[O-].[Na+] [MSG, monosodium glutamate, reference compound]
- Baked, roasted [1, 3]: 5.00
- Bitter [1, 3]: 1.35
- Meaty [1, 3]: 5.47
- Metallic [1, 3]: 3.47
- Mouth-watering [1, 3]: 4.53
- Mouthfeel [1, 3]: 5.41
- Salty [1, 3]: 3.29
- Sour [1, 3]: 2.94
- Sweet [1, 3]: 2.41
- Tenacity, long-lasting [1, 3]: 5.06

SMILES: CNC(=O)C(=O)NCCC(C)CCC=C(C)C (stereo not shown) [formula (5)]
- Taste profile (panel of trained testers; listed as (5)): fruity notes
- Taste profile (panel of trained testers; listed as drawing 24): fruity

SMILES: CC(C)=CCC/C(C)=C/CNC(=O)C(=O)NC/C=C(\C)CCC=C(C)C [formula (1), N,N′-Bis-((E)-3,7-dimethyl-octa-2,6-dienyl)-oxalamide]
- Umami character (panel of trained testers): did not demonstrate any umami character
- Taste profile (panel of trained testers): neutral, slightly hot

SMILES: COC(=O)C(=O)NCCC(C)CCCC(C)C (stereo not shown)
- Taste profile (panel of trained testers): fatty, bitter, metallic

SMILES: CC(C)=CCC/C(C)=C\CNC(=O)C(=O)NC/C=C(/C)CCC=C(C)C [formula (2), N,N′-Bis-((Z)-3,7-dimethyl-octa-2,6-dienyl)-oxalamide]
- Umami character (panel of trained testers): did not demonstrate any umami character
- Taste profile (panel of trained testers): neutral, slight burning

SMILES: COC(=O)C(=O)NCCC(C)CCC=C(C)C (stereo not shown) [formula (4)]
- Taste profile (panel of trained testers; listed as (4)): very neutral
- Taste profile (panel of trained testers; listed as drawing 23): neutral

SMILES: CNC(=O)C(=O)OC/C=C(\C)CCC=C(C)C
- Taste profile (panel of trained testers): soapy, flowery, per- fumey

SMILES: COC(=O)C(=O)NCC=C(C)C
- Taste profile (panel of trained testers): taste of its own, sol- vent

SMILES: CCOC(=O)C(=O)NC/C=C(\C)CCC=C(C)C [formula (6), N-((E)-3,7-dimethyl-octa-2,6-dienyl)-oxalic acid amide-ethyl-ester]
- Taste profile (panel of trained testers): musty, herbaceous and chemical

SMILES: COC(=O)C(=O)NC/C=C(/C)CCC=C(C)C [formula (III), N-((Z)-3,7-dimethyl-octa-2,6-dienyl)-oxalic acid amide-methyl-ester]
- Umami character (panel of trained testers): do not in fact have any umami character
- Taste profile (panel of trained testers): musty, bitter, long-lasting

SMILES: COC(=O)C(=O)NC/C=C(\C)CCC=C(C)C [formula (I), N-((E)-3,7-dimethyl-octa-2,6-dienyl)-oxalic acid amide-methyl-ester]
- Taste compared with the unflavored green tea base [2]: markedly preferable
- Umami character (panel of trained testers): clear umami taste
- Taste profile (panel of trained testers): sweet, full, prickling, umami
- Baked, roasted ([1]; beef extract + 10 ppm compound): 3.55
- Bitter ([1]; beef extract + 10 ppm compound): 1.36
- Meaty ([1]; beef extract + 10 ppm compound): 4.55
- Metallic ([1]; beef extract + 10 ppm compound): 3.82
- Mouth-watering ([1]; beef extract + 10 ppm compound): 3.64
- Mouthfeel ([1]; beef extract + 10 ppm compound): 4.45
- Salty ([1]; beef extract + 10 ppm compound): 2.64
- Sour ([1]; beef extract + 10 ppm compound): 2.91
- Sweet ([1]; beef extract + 10 ppm compound): 1.36
- Tenacity, long-lasting ([1]; beef extract + 10 ppm compound): 3.73

SMILES: CNC(=O)C(=O)NC/C=C(/C)CCC=C(C)C [formula (IV), N-((Z)-3,7-dimethyl-octa-2,6-dienyl)-N′-methyl-oxalamide]
- Umami character (panel of trained testers): do not in fact have any umami character
- Taste profile (panel of trained testers): sour
